Legend:
α/β-tubulin = biological target: T1, α/β-tubulin (Sus scrofa, UniProt P02550+P02554); assay: Tryptophan-based drug-binding assay, α/β-tubulin; design: species or system porcine; details: tryptophan fluorescence decrease; 1 μM protein; mean±s.d., three independent experiments
T1 construct: α/β-Tubulin was purified from porcine brain; from tissue; host or cells: porcine brain
Description: γ-TuSC was purified as described. Briefly, γ-TuSC was expressed in HighFive cells and purified by sequential steps of Ni-NTA (Macherei-Nagel) purification, MonoQ column purification (GE Healthcare) and size exclusion (Superdex 200 column, GE Healthcare)[14]. α/β-Tubulin was purified from porcine brain through four cycles of polymerization and depolymerization using 1 M PIPES buffer (1 M PIPES-KOH, 1 mM EGTA, 1 mM MgCl2, pH 6.8) for effective removal of MT-associated proteins.
(§1) Gel filtration buffer for γ-tubulin purification (50 mM MES pH 6.6, 500 mM KCl, 5 mM MgCl2, 1 mM EGTA and 1 mM DTT) supplemented with 10% of glycerol was used as an assay buffer. γ-tubulin and α/β-tubulin were diluted in this assay buffer to reach a final protein concentration of 1 μM. A final concentration of 10 μM or 1 mM GTP was added to the samples. Proteins were incubated for 30 min with compounds (final DMSO concentration was 1%; 2% for AG1 and gatastatin). […] Dissociation constants were calculated from fitting curves of decreasing fluorescence (ΔFL) using the GraphPad Prizm software.

human γ-tubulin = biological target: T2, human γ-tubulin (Homo sapiens, UniProt P23258); assay: Tryptophan-based drug-binding assay, γ-tubulin; details: for Ratio of Kd[α/β-tubulin]/Kd[γ-tubulin]: selectivity for γ-tubulin over α/β-tubulin
T2 construct: myc (C); 6His (C); made in house; host or cells: Sf21 insect cells (baculovirus)
Description: In brief, 0.7 × 10^6 cells ml^−1 were infected with the γ-tubulin baculovirus. After 48 h, cells were collected by centrifugation at […] for 10 min and flash-frozen in liquid nitrogen and stored at −80 °C. Purification was carried out as described with slight modifications. […] Imidazole (final 10 mM) was added and the lysate was centrifuged again at 192,800g for 30 min at 4 °C. […] Ni-NTA Agarose was then washed twice with wash buffer 1 (lysis buffer containing 25 mM imidazole) and wash buffer 2 (50 mM MES pH 6.6, 500 mM KCl, 5 mM MgCl2, 10% glycerol, 10 μM GTP and 1 mM DTT) containing 25 mM imidazole. γ-Tubulin was eluted with wash buffer 2 containing 200 mM imidazole.
Monomeric γ-tubulin was prepared using a size exclusion column HiLoad 16/60 Superdex 200 pre-equilibrated with gel filtration buffer (50 mM MES pH 6.6, 500 mM KCl, 5 mM MgCl2, 1 mM EGTA, 10 μM GTP and 1 mM DTT). The peak fractions representing monomeric γ-tubulin were identified by A280 and confirmed using SDS–PAGE. Protein was concentrated using a Vivaspin concentrator (Sartorius) and supplemented with 10% glycerol, following snap-freezing in liquid nitrogen and storage at −80 °C.
as §1

[1] = system: γ-tubulin-dependent, RanQ69L-stimulated aster formation; assay: RanQ69L-stimulated aster formation in M-phase Xenopus egg extracts; type: biochemical
Description: (§2) Cytostatic factor (CSF)-arrested M phase Xenopus egg extracts (CSF extracts) were prepared. Briefly, unfertilized eggs were crushed by 10,700g centrifugation for 20 min. M phase extracts were mixed with 0.5 μM Cy3-labelled α/β-tubulin and various concentrations of compounds. After incubation for 30 min on ice, 15 μM RanQ69L, 200 sperm nuclei per μl or 5% DMSO were added and incubated for 30 min on ice. After incubation for 20 min at 20 °C (for the samples with sperm nuclei, the incubation time was 30 min), 1.5 μl sample was fixed with 1.5 μl fix solution (0.3 volume of 37% formaldehyde, 0.6 volume of 80% glycerol and 0.1 vol of 10 × MMR solution (50 mM HEPES, pH 7.8, 1 M NaCl, 20 mM KCl, 10 mM MgCl2, 20 mM CaCl2 and 1 mM EDTA)), followed by the squash fix.
(§3) Images were acquired using a microscope (Axiovert 200 M; Carl Zeiss Inc.) equipped with a plan-Apochromat × 63 NA 1.3 oil objective lens (Carl Zeiss Inc.), a Cy3 emission filter and a Cascade:1 K (Photometrics Inc.) camera, and the AxioVision software (Carl Zeiss Inc.). The aster size and fluorescence intensity were quantified using a macro written in MATLAB[41].

[2] = system: DMSO-stimulated, γ-tubulin-independent aster formation; assay: DMSO-stimulated aster formation in M-phase Xenopus egg extracts; type: biochemical; details: M-phase-arrested Xenopus egg extracts, 5% DMSO, 20 min at 20 °C
Description: as §2, §3

[3] = biological target: T3, porcine brain α/β-tubulin (Sus scrofa, UniProt P02550+P02554); assay: In vitro MT polymerization assay (glutamate, paclitaxel or Tau stimulated); type: biochemical; details: absence of γ-tubulin; absorbance at 350 nm, 37 °C
T3 construct: α/β-Tubulin was purified from porcine brain; from tissue; host or cells: porcine brain
Description: For glutamate-stimulated MT polymerization, 1 mg ml^−1 porcine brain α/β-tubulin was mixed with glutamate (final concentration 1 M) and GTP (final concentration 1 mM) in RB buffer on ice. For paclitaxel-stimulated MT polymerization, 1 mg ml^−1 porcine brain α/β-tubulin was mixed with paclitaxel (final concentration 10 μM) and GTP (final concentration 1 mM) in RB buffer on ice. For recombinant Tau protein-stimulated MT polymerization, 1 mg ml^−1 α/β-tubulin purified from porcine brain and Tau protein were mixed with GTP (final concentration 1 mM) in RB buffer on ice. For γ-TuSC-stimulated MT polymerization, γ-TuSC was mixed with GTP (final concentration 1 mM). One of the compounds and α/β-tubulin were then added. Samples were transferred into cuvettes. Tubulin polymerization was monitored using the absorbance at 350 nm at 37 °C using a thermostatic spectrophotometer (Beckman Coulter).

HeLa cells = assay: Anaphase spindle elongation, time-lapse anaphase duration; type: cell-based, human; details: 30 μM, after MG132 washout, 1 μM reversine, control 18.6 min
Description: HeLa cells expressing mCherry-H2B and EGFP-α-tubulin, HeLa ‘Kyoto' cell line stably expressing CEP55-LAPtag (a kind gift from Dr A.A. Hyman) and HeLa cells expressing RFP-H2B and GFP-LifeAct (a kind gift from Dr J. Ellenberg) were cultured in DMEM+GlutaMAX (Gibco) supplemented with 10% FBS, 100 U ml^−1 penicillin, 100 μg ml^−1 streptomycin and 1 mM sodium pyruvate in a humidified atmosphere containing 5% CO2. To observe the transition from metaphase to anaphase, telophase and cytokinesis, cells were arrested at metaphase by sequential treatment of STLC and MG132. After MG132 removal by washing of cells with medium three times, the medium was changed to Live Cell Imaging Solution (Molecular Probes Life Technologies) supplemented as described above containing 1 μM of MPS1 inhibitor reversine and either DMSO or 30 μM of gatastatin. Time-lapse observation was performed at 37 °C using the DeltaVision Olympus IX71 microscope (Applied Precision) equipped with CoolSNAP HQ camera (Photometrics). Images were taken every 3 min with 12 z-stacks (1 μm per stack) for 3 h. The anaphase duration (between chromosome separation and start of midbody formation) was calculated.

T2 sequence (P23258 whole entry): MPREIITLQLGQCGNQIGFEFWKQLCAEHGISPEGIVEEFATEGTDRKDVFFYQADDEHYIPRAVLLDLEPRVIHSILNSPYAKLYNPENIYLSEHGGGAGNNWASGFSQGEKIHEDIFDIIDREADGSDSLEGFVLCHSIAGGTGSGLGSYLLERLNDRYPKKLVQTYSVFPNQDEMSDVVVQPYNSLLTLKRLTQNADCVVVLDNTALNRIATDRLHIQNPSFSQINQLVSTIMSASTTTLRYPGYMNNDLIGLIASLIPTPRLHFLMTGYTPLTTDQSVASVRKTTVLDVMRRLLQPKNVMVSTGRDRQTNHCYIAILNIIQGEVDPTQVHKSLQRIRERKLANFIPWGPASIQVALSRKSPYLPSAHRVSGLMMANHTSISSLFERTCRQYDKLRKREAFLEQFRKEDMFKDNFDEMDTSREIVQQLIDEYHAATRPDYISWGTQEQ
T3 sequence (P02550 whole entry): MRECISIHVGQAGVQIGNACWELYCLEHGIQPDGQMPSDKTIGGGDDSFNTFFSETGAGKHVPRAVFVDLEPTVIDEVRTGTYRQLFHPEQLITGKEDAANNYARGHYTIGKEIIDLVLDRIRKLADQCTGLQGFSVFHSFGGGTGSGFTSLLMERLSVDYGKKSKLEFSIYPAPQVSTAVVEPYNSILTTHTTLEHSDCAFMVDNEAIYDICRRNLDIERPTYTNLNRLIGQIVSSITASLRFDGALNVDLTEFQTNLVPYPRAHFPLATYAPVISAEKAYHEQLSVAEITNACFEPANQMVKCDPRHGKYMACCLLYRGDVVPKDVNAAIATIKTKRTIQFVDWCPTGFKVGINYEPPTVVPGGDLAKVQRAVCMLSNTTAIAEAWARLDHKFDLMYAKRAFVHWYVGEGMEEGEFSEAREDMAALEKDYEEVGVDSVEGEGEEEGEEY
T3 sequence (P02554 whole entry): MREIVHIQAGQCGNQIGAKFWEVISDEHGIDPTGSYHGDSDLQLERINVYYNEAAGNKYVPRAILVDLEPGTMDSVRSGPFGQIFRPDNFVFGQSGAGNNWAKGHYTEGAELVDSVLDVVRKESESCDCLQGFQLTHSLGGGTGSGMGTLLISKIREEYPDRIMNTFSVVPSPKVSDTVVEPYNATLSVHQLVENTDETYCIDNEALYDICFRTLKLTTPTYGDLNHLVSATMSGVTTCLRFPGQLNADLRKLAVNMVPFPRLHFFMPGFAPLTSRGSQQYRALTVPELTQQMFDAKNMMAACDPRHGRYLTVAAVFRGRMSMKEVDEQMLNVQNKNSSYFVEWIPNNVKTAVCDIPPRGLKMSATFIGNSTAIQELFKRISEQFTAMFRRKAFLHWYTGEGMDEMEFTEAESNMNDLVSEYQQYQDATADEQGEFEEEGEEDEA
T1 sequence (P02554 whole entry): as above
T1 sequence (P02550 whole entry): as the sequence (P02550 whole entry) above

COc1cc2c(=O)c(-c3cc(OC)c4c(c3OC)OCO4)coc2cc1OCc1ccccc1 [Gatastatin, O^7-demethylbenzyl AG1]
Kd (α/β-tubulin): 42.5 ± 36.7 µM
Ratio of Kd[α/β-tubulin]/Kd[γ-tubulin] (human γ-tubulin): 11.81
Ratio of Kd[α/β-tubulin]/Kd[γ-tubulin] (human γ-tubulin; listed as gatastatin): 12
Kd (human γ-tubulin; tryptophan fluorescence decrease, 1 μM protein, mean±s.d., three independent experiments): 3.6 ± 1.3 µM
IC50 ([1]; M-phase-arrested Xenopus egg extracts, 15 μM RanQ69L, 20 min at 20 °C): 9.7 µM
Effect on number of RanQ69L-dependent asters ([1]; Xenopus egg extracts): without changing the number of asters
IC50 [2]: > 100 µM
Effect on MT polymerization in vitro induced by glutamate, paclitaxel or recombinant Tau protein [3]: failed to impair MT polymerization in vitro
Anaphase duration (HeLa cells): 32.4 min

— paper PMC4640066 (Nature Communications, 2015)
